Assay results: patent US20220040304A1, “A COMPOSITION FOR CANCER CELL DEATH AND ITS USE” (Industry-University Cooperation Foundation Hanyang …, priority 2018, published 2022)
Several values for one entry are separate records, joined by “and”; a condition that tells them apart may be missing. Equal values may be shown once.

Experiments:
[1] = system: MCF-7 cells; assay: Cell death by SYTOX Green or EthD-1 and DAPI fluorescence (light irradiation or Co-h); type: cell-based, human; details: MCF-7, protein 10 μM 24 hours; light 10 mW/cm^2 or Co-h 150 μM over time
Description: MCF-7 cells were seeded at 5×10^5 cells/mL in a 96-well plate (SPL Cell Culture Plate, 96 well (SPL, Cat #30096)), and cultured at 37° C. for 24 hours (overnight). After the culture for 24 hours, the cells were washed with FBS & Phenol red-free media (RPMI), and 100 μL of an FBS-free medium containing the purified protein (final concentration: 10 μM) was added, followed by reaction at 37° C. for 24 hours.
After the reaction for 24 hours, the cells were washed with FBS & Phenol red-free media (RPMI), and then 100 μL of FBS & Phenol red-free media (RPMI) was then added.
After the reaction, 8.1 μL of FMN (final concentration: 150 μM) was added. […]
SYTOX Green or EthD-1 and DAPI fluorescence images were observed using a confocal microscope according to a protein type treated to cells and i) light irradiation time or ii) reaction time with a Co-h substrate, and cell death was confirmed by measuring relative fluorescence intensity at an excitation wavelength of 504 nm and an emission wavelength of 523 nm of SYTOX Green, and an excitation wavelength of 525 nm and an emission wavelength of 590 nm of EthD-1 using a plate reader.
Whether or not Cell death was observed by fluorescence microscopy using SYTOX Green (dead cell-specific dye, green) or EthD-1 (dead cell-specific dye, red) and DAPI (live cell-specific dye, blue).

[2] = system: MCF-7 cells; assay: MTT colorimetric change and cell viability after light irradiation; type: cell-based, human; details: MCF-7, protein 10 μM 24 hours, light 10 mW/cm^2, no Co-h
Description: MCF-7 cells were seeded at 5×10^5 cells/mL in a 96-well plate (SPL Cell Culture Plate, 96 well (SPL, Cat #30096)), and cultured at 37° C. for 24 hours (overnight). After the overnight culture, the cells were washed with FBS & Phenol red-free media (RPMI, Well Gene., Korea, Cat #LM011-02), and 100 μL of an FBS-free medium containing the purified protein (final concentration: 10 μM) was added, followed by reaction at 37° C. for 24 hours. After the reaction for 24 hours, the cells were washed with FBS & Phenol red-free media (RPMI), and then 100 μL of FBS & Phenol red-free media (RPMI) was added again. After light irradiation at 10 mW/cm^2 over time, the cells were washed with FBS & Phenol red-free media (RPMI), and 100 μL of FBS & Phenol red-free media (RPMI) was added again. 10 μL of 3-(4,5-dimethylthiazol-2-yl)-2,5-diphenyltetrazolium bromide (MTT; Cell Biolabs Inc., USA; final concentration: 1×) was added, followed by reaction at 37° C. for 4 hours. 100 μL of a supernatant was removed, and 100 μL of DMSO (Sigma-Aldrich., USA) was added, followed by reaction for 10 minutes. The colorimetric change of MTT according to a protein type treated to the cells and light irradiation time was confirmed, and then cell viability was confirmed by measuring the absorbance intensity at 570 nm using a plate reader.

[3] = Fluorescence assay of purified proteins (excitation/emission); type: physicochemical; details: protein 10 μM in 1×PBS
Description: 100 μL of buffer (1×PBS) containing the protein purified in Example 1 (final concentration: 10 μM) was dispensed into a 96-well plate (SPL Cell Culture Plate, 96 well (SPL, Cat #32096)). Afterward, a fluorescence signal level was detected by fluorescence assay using a Thermo Scientific™ Varioskan™ Flash Multimode Reader.

[4] = system: MDA-MB-231; assay: Cell death with Co-h substrate by cell type (SYTOX Green or EthD-1/DAPI); type: cell-based, human; details: MDA-MB-231, protein 10 μM, Co-h 150 μM for 5 minutes
Description: (§1) The cells were seeded at 5×10^5 cells/mL in 96-well plates (SPL Cell Culture Plate, 96 well (SPL, Cat #30096)), and cultured at 37° C. for 24 hours (overnight). After the culture for 24 hours, the cells were washed with FBS & phenol red-free media, and 100 μL of FBS & phenol red-free media containing a purified protein (final concentration: 10 μM) was added, followed by reaction at 37° C. for 24 hours.
(§2) Subsequently, the cells were washed with FBS & phenol red-free media, and 100 μL of FBS & phenol red-free media was added. 100 μL of FBS & Phenol red-free media (RPMI) containing a Co-h substrate solution (final concentration: 150 μM) was added, followed by reaction at 37° C. for 5 minutes.
(§3) After the reaction, 50 μL of SYTOX Green (final concentration: 261 nM) or 90 μL of ethidium homodimer (EthD-1) (final concentration 1×), which stains DNA of dead cells, was added, followed by reaction at 37° C. for 30 minutes. 10 μL of DAPI staining DNA of live cells was added, followed by reaction for 5 minutes. Cell death was confirmed by observing KillerRed, SYTOX Green, MiniSOG, EthD-1 and DAPI fluorescence using a confocal microscope.

[5] = system: SK-BR-3; assay: as above; type: cell-based, human; details: SK-BR-3, protein 10 μM, Co-h 150 μM for 5 minutes
Description: as §1, §2, §3

[6] = system: MCF-10A; assay: as above; type: cell-based, human; details: protein 10 μM, Co-h 150 μM for 5 minutes
Description: as §1, §2, §3

[7] = system: MDA-MB-435; assay: as above; type: cell-based, human; details: MDA-MB-435, protein 10 μM, Co-h 150 μM for 5 minutes
Description: as §1, §2, §3

[8] = system: MCF-7; assay: as above; type: cell-based, human; details: MCF-7, protein 10 μM, Co-h 150 μM for 5 minutes
Description: as §1, §2, §3

[9] = system: BT-474; assay: as above; type: cell-based, human; details: BT-474, protein 10 μM, Co-h 150 μM for 5 minutes
Description: as §1, §2, §3

Substance | cell death by staining (SYTOX Green or EthD-1 dead cells, DAPI live cells) [1] | cell viability / colorimetric change of MTT with light irradiation time [2] | emission wavelength (fluorescence) [3] | excitation wavelength [3] | cell death with Co-h substrate [4] | cell death with Co-h substrate [5] | cell death with Co-h substrate [6] | cell death with Co-h substrate [7] | cell death with Co-h substrate [8] | cell death with Co-h substrate [9]
MS: first protein MiniSOG, ROS-generating protein (singlet oxygen), expressed from pRSET-MiniSOG, 13 kDa [reference compound] | stained with DAPI | alive | 500 nm and 528 nm | 448 nm | – | – | – | – | – | –
RLuc8-MS: fusion protein of RLuc8 and MiniSOG without lead peptide, 53 kDa | stained with DAPI | alive | – | – | none of the six breast cancer cell lines were killed | none of the six breast cancer cell lines were killed | none of the six breast cancer cell lines were killed | none of the six breast cancer cell lines were killed | none of the six breast cancer cell lines were killed | none of the six breast cancer cell lines were killed
